Assays:
Format in all cases: functional
[1] = system: Trypanosoma cruzi; assay: Compound was evaluated for its percent inhibition of thymidine incorporation in Trypanosoma cruzi without killing the cells at 25 degree Celsius and 50 uM/L
[2] = system: Trypanosoma cruzi; assay: Compound was evaluated for its percent inhibition of growth of Trypanosoma cruzi at 100 uM/L
[3] = system: Trypanosoma cruzi; assay: Compound was evaluated for its percent inhibition of thymidine incorporation in Trypanosoma cruzi without killing the cells at 25 degree Celsius and 100 uM/L
[4] = system: Trypanosoma cruzi; assay: Compound was evaluated for its percent inhibition of growth of Trypanosoma cruzi at of 50 uM/L
[5] = system: Trypanosoma cruzi; assay: Compound was evaluated for its percent inhibition for thymidine incorporation in Trypanosoma cruzi without killing the cells at 25 degree Celsius and 17 uM/L

Compound | Inhibition [1] | inhibition at 100 µM [2] | Inhibition [3] | inhibition at 50 µM [4] | Inhibition [5]
CC/C(C)=C\CC/C(C)=C/CCC(C)OC(=O)OCC(C)C (stereo unspecified) | 62.8% | 68% | 70.8% | 56.6% | 
COC(=O)OC/C=C(\C)CC/C=C(\C)CCC1OC1(C)C (stereo unspecified) | 25.7% | 62.8% | 46.3% | 44.8% | 
CC(C)(C)OC(=O)CC(O)COc1ccc(Oc2ccccc2)cc1 (stereo unspecified) | 70.6% | 98.8% | 93.5% | 67.2% | 
c1ccc(Oc2ccc(OCCOC3CCCCO3)cc2)cc1 (stereo unspecified) | 40.8% | 90.6% | 86.2% | 57% | 
COC(=O)OC(C)CC/C=C(\C)CCC=C(C)C (stereo unspecified) | 75.6% | 97.5% | 91.6% | 51% | 
CCSC(=O)OC/C=C(\C)CC/C=C(\C)CCC1OC1(C)C (stereo unspecified) | 80.7% | 99% | 95.6% | 90.7% | 
CCSC(=O)OC(C)CC/C=C(\C)CC/C=C(/C)CC (stereo unspecified) | 65.3% | 79.4% | 75.2% | 50.7% | 
CCSC(=O)OC/C=C(\C)CC/C=C(\C)CCC=C(C)C | 57.9% | 94.2% | 72.6% | 69.3% | 
COC(C)(C)CCCC(C)C/C=C/C(C)=C/C(=O)OC(C)C (stereo unspecified) | 70.5% | 92.5% | 86.5% | 60% | 
CC(C)=CCC/C(C)=C/CCC(C)OC(=O)OCC(C)C (stereo unspecified) | 73.3% | 89.6% | 95.8% | 70.8% | 
C/C=C\CC/C(C)=C/CCC(C)OC(=O)OCC(C)C (stereo unspecified) | 70.1% | 75.4% | 89.6% | 47.6% | 
C=CCOc1ccc(Oc2ccccc2)cc1 | 60.9% | 95.4% | 83.9% | 80.8% | 
C/C(=C\CCC(C)OC(=O)OCC(C)C)CCC1OC1(C)C (stereo unspecified) | 50.8% | 68% | 70% | 33.4% | 
COC(=O)OCCC/C=C(\C)CCC=C(C)C | 66.3% | 56% | 95.3% | 41.3% | 
CC(C)=CCC/C(C)=C/CCCOC(=O)OCC(C)C | 88.4% | 94% | 100.1% | 57.3% | 50.6%

Source: ChEMBL document CHEMBL1125964, “Synthesis and biological activivity of juvenele hormone analogues (JHA) for Trypanosoma cruzi” (1991)
